Reference: US12173007B2, “Imidazopyridazine IL-17 inhibitor compounds” (Janssen Pharmaceutica NV, priority 2021, dated 2024)

How the values were obtained:
[1] = target: IL-17A(FLAG-Tagged): IL-17RA(His-Tagged) binding (Homo sapiens, UniProt Q16552, K93Q); assay: IL-17A(FLAG-tagged):IL-17RA(His-tagged) binding disruption Eu-HTRF assay, Protocol 2; settings: FLAG-IL-17A 1 nM; average if tested more than once
Excerpt: IL-17A(FLAG-Tagged): IL-17RA(His-Tagged) Binding Disruption Eu-HTRF Assay
An antibody directed against the FLAG tag of IL-17A (SEQ ID NO: 1) is labeled with the HTRF donor chromophore (Europium-cryptate). IL-17A is present as a dimer that is “locked into” this quaternary structure due to the formation of loop-spanning […] disulfide bridges. The construct of IL-17RA used in the assay excludes the […] portion of the receptor and is fused to a C-terminal 10×His tag (SEQ ID NO:2). An antibody directed against the His tag of the IL-17RA chimera is labeled with the HTRF acceptor chromophore (“D2”). The fluorescence-resonance energy transfer (FRET) depends on the vicinity of the donor chromophore to the acceptor, and interruption of the binding between the IL-17A and IL-17RA causes the reduction/loss of FRET. Therefore, this assay allows to evaluate the compound effect on the binding IL-17A and IL-17RA by monitoring the fluorescence intensity of donor vs acceptor. The assay was run using either Protocol 1 or Protocol 2 as described below.
Protocol 2. 40 nl of 2-fold serial diluted compound solution for total 22 dilution points is added into each well of a 1536-well, white, low-volume, non-binding plate (Greiner #782904), then 2 μl of FLAG tagged IL-17A at 2×final concentration (1 nM) in solution of PBS+0.01% Triton-X100 is added to each well. The assay plate is briefly centrifuged then incubated for 1 h at rt. A mixed solution is prepared containing 2×5 nM 10HIS×IL-17RA, 2×2.5 nM Eu-anti-FLAG (CISBIO), 2×5 nM D2-anti-HIS (CISBIO) in PBS+0.01% Triton-X100+200 mM Potassium Fluoride (Sigma 60238) and 2 μl of mix is added to each well of the assay plate. The plate is briefly centrifuged then incubated for 2 h at rt. The HTRF intensities at the wavelength of donor (615 nm) and acceptor (665 nm) are measured using BMG Pherastar. The ratio between intensities at two wavelengths is calculated and plotted against the compound concentration and the data is fitted to a one-site competition model to yield IC50 of the compound.

[2] = test system: IL-17A-induced G-CSF production in human normal keratinocyte (NHK); assay: NHK assay: IL-17A-induced G-CSF production in normal human keratinocytes; type: cell-based; settings: Homo sapiens, Keratinocyte, 24 h, IL-17A 5 ng/mL, G-CSF by HTRF, average if tested more than once
Protocol: IL-17A acts directly on keratinocytes through binding to dimeric receptor IL-17RA/RC and drives the production of a number of inflammatory mediators known to be elevated in psoriasis lesional tissue. IL-17A small molecule inhibitors that block the IL-17A to interact with IL-17R would inhibit the IL-17A signaling in its targeted cells such as keratinocytes. The compound functional activity is evaluated for its impact on IL-17A-induced G-CSF production in human normal keratinocyte (NHK).
Adult normal human keratinocytes are cultured in keratinocyte growth medium (Lonza) in a flask till reaching ˜90% confluence, then cells are transferred to a 384-well plate at density of 3000-4000 cell/well. Recombinant human IL-17A (Gibco PHC9174) is pre-incubated with titrated compound or DMSO for 1 h at rt then added to the cell culture plate. The final concentration of IL-17A is 5 ng/mL and DMSO is 0.2%, in the culture containing 5% FBS. Cells are cultured/treated for 24 h at 37° C. Supernatants are collected and G-CSF production is measured through HTRF technology using Human G-CSF Kit (CisBio). G-CSF concentration was extrapolated from the standard curve and IC50 is determined using GraphPad Prism. Cell viability is also evaluated using CellTiter-Glo kit (Promega) and effect of compound on cell viability is compared to DMSO control.

Sequence of UniProt Q16552 (Q16552 with tags, fused parts or gaps K93Q): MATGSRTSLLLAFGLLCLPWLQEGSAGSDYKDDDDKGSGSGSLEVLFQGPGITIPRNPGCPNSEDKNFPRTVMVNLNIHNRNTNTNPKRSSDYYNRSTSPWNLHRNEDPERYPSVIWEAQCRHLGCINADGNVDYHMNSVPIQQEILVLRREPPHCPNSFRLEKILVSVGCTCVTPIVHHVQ

| SMILES | IC50 [1] | IC50 [2] |
| --- | --- | --- |
| COC[C@H](c1cnn2cc([C@@H](NC(=O)c3nonc3C3CC3)[C@@H](C)OC3CC3)nc2c1)N1CC(F)(F)CNC1=O (relative stereo) [Example 54, N-((1R*,2R*)-2-Cyclopropoxy-1-(7-((S)-1-(5,5-difluoro-2-oxotetrahydropyrimidin-1(2H)-yl)-2-methoxyethyl)imidazo[1,2-b]pyridazin-2-yl)propyl)-4-cyclopropyl-1,2,5-oxadiazole-3-carboxamide] | < 50 nM | 50 to 100 nM |
| COC[C@H](c1cnn2cc([C@@H](NC(=O)c3nonc3C3CC3)[C@H](C)OC3CC3)nc2c1)N1CC(F)(F)CNC1=O (relative stereo) [Example 55, N-((1R*,2S*)-2-cyclopropoxy-1-(7-((S)-1-(5,5-difluoro-2-oxotetrahydropyrimidin-1(2H)-yl)-2-methoxyethyl)imidazo[1,2-b]pyridazin-2-yl)propyl)-4-cyclopropyl-1,2,5-oxadiazole-3-carboxamide] | > 100 nM | > 100 nM |
| COC[C@H](c1cnn2cc([C@@H](NC(=O)c3nonc3C)[C@H](C)OC(C)(C)C(F)(F)F)nc2c1)N1CC(F)(F)CNC1=O (relative stereo) [Example 61, N-((1R*,2S*)-1-(7-((S)-1-(5,5-Difluoro-2-oxotetrahydropyrimidin-1(2H)-yl)-2-methoxyethyl)imidazo[1,2-b]pyridazin-2-yl)-2-((1,1,1-trifluoro-2-methylpropan-2-yl)oxy)propyl)-4-methyl-1,2,5-oxadiazole-3-carboxamide] | > 100 nM | > 100 nM |
| COC[C@H](c1cnn2cc([C@@H](NC(=O)c3nonc3C3CC3)[C@@H](C)OC3(C(F)(F)F)CC3)nc2c1)N1CC(F)(F)CNC1=O (relative stereo) [Example 90, 4-Cyclopropyl-N-((1R*,2R*)-1-(7-((S)-1-(5,5-difluoro-2-oxotetrahydropyrimidin-1(2H)-yl)-2-methoxyethyl)imidazo[1,2-b]pyridazin-2-yl)-2-(1-(trifluoromethyl)cyclopropoxy)propyl)-1,2,5-oxadiazole-3-carboxamide] | < 50 nM | < 50 nM |
| COC[C@H](c1cnn2cc([C@@H](NC(=O)c3nonc3C3CC3)[C@H](C)OC3(C(F)(F)F)CC3)nc2c1)N1CC(F)(F)CNC1=O (relative stereo) [Example 91, 4-Cyclopropyl-N-((1R*,2S*)-1-(7-((S)-1-(5,5-difluoro-2-oxotetrahydropyrimidin-1(2H)-yl)-2-methoxyethyl)imidazo[1,2-b]pyridazin-2-yl)-2-(1-(trifluoromethyl)cyclopropoxy)propyl)-1,2,5-oxadiazole-3-carboxamide] | 50 to 100 nM | > 100 nM |
| COc1nonc1C(=O)N[C@@H](CCC(C)(C)C(F)(F)F)c1cn2ncc(CN3C[C@@H]4[C@H](CNC3=O)C4(F)F)cc2n1 (relative stereo) [Example 116, N—((S)-1-(7-(((1S*,7R*)-8,8-Difluoro-4-oxo-3,5-diazabicyclo[5.1.0]octan-3-yl)methyl)imidazo[1,2-b]pyridazin-2-yl)-5,5,5-trifluoro-4,4-dimethylpentyl)-4-methoxy-1,2,5-oxadiazole-3-carboxamide] | 50 to 100 nM | > 100 nM |
| COC[C@H](c1cnn2cc([C@@H](NC(=O)c3nonc3C)[C@@H](C)O[C@H](C)C(F)(F)F)nc2c1)N1CC(F)(F)CNC1=O [Example 53, N-((1R,2R)-1-(7-((S)-1-(5,5-Difluoro-2-oxotetrahydropyrimidin-1(2H)-yl)-2-methoxyethyl)imidazo[1,2-b]pyridazin-2-yl)-2-(((R)-1,1,1-trifluoropropan-2-yl)oxy)propyl)-4-methyl-1,2,5-oxadiazole-3-carboxamide] |  | < 50 nM |
| Cc1nonc1C(=O)N[C@@H](COC(C)(C)C(F)(F)F)c1cn2ncc([C@@H](C3CC3)N3CC(F)(F)CNC3=O)cc2n1 [Example 62, N—((R)-1-(7-((R)-Cyclopropyl(5,5-difluoro-2-oxotetrahydropyrimidin-1(2H)-yl)methyl)imidazo[1,2-b]pyridazin-2-yl)-2-((1,1,1-trifluoro-2-methylpropan-2-yl)oxy)ethyl)-4-methyl-1,2,5-oxadiazole-3-carboxamide] |  | 50 to 100 nM |
| C[C@H](c1cnn2cc([C@@H](NC(=O)c3nonc3C3CC3)C3CCC(F)(F)CC3)nc2c1)N1CC(F)(F)CNC1=O [Example 63, 4-Cyclopropyl-N—((S)-(7-((R)-1-(5,5-difluoro-2-oxotetrahydropyrimidin-1(2H)-yl)ethyl)imidazo[1,2-b]pyridazin-2-yl)(4,4-difluorocyclohexyl)methyl)-1,2,5-oxadiazole-3-carboxamide] |  | < 50 nM |
| COC[C@H](c1cnn2cc([C@H](COC(C)(C)C(F)(F)F)NC(=O)c3nonc3C3CC3)nc2c1)N1CC(F)(F)CNC1=O [Example 64, 4-Cyclopropyl-N—((R)-1-(7-((S)-1-(5,5-difluoro-2-oxotetrahydropyrimidin-1(2H)-yl)-2-methoxyethyl)imidazo[1,2-b]pyridazin-2-yl)-2-((1,1,1-trifluoro-2-methylpropan-2-yl)oxy)ethyl)-1,2,5-oxadiazole-3-carboxamide] |  | < 50 nM |
| COC[C@H](c1cnn2cc([C@H](COC(C)(C)C(F)(F)F)NC(=O)c3ccnn3C(C)C)nc2c1)N1CC(F)(F)CNC1=O [Example 65, N—((R)-1-(7-((S)-1-(5,5-Difluoro-2-oxotetrahydropyrimidin-1(2H)-yl)-2-methoxyethyl)imidazo[1,2-b]pyridazin-2-yl)-2-((1,1,1-trifluoro-2-methylpropan-2-yl)oxy)ethyl)-1-isopropyl-1H-pyrazole-5-carboxamide] |  | < 50 nM |
| COC[C@H](c1cnn2cc([C@H](CC(C)(C)C(F)(F)F)NC(=O)c3nonc3C)nc2c1)N1CC(F)(F)CNC1=O [Example 66, N—((S)-1-(7-((S)-1-(5,5-Difluoro-2-oxotetrahydropyrimidin-1(2H)-yl)-2-methoxyethyl)imidazo[1,2-b]pyridazin-2-yl)-4,4,4-trifluoro-3,3-dimethylbutyl)-4-methyl-1,2,5-oxadiazole-3-carboxamide] |  | 50 to 100 nM |
| COC[C@H](c1cnn2cc([C@@H](CCC(C)(C)C(F)(F)F)NC(=O)c3nonc3C)nc2c1)N1CC(F)(F)CNC1=O [Example 67, N—((R)-1-(7-((S)-1-(5,5-Difluoro-2-oxotetrahydropyrimidin-1(2H)-yl)-2-methoxyethyl)imidazo[1,2-b]pyridazin-2-yl)-5,5,5-trifluoro-4,4-dimethylpentyl)-4-methyl-1,2,5-oxadiazole-3-carboxamide] |  | > 100 nM |
| C[C@H](c1cnn2cc([C@H](COC(C)(C)C(F)(F)F)NC(=O)c3nonc3C3CC3)nc2c1)N1CC(F)(F)CNC1=O [Example 87, 4-Cyclopropyl-N—((R)-1-(7-((R)-1-(5,5-difluoro-2-oxotetrahydropyrimidin-1(2H)-yl)ethyl)imidazo[1,2-b]pyridazin-2-yl)-2-((1,1,1-trifluoro-2-methylpropan-2-yl)oxy)ethyl)-1,2,5-oxadiazole-3-carboxamide] |  | < 50 nM |
| C[C@H](c1cnn2cc([C@H](CC(C)(C)C(F)(F)F)NC(=O)c3nonc3C3CC3)nc2c1)N1CC(F)(F)CNC1=O [Example 88, 4-Cyclopropyl-N—((S)-1-(7-((R)-1-(5,5-difluoro-2-oxotetrahydropyrimidin-1(2H)-yl)ethyl)imidazo[1,2-b]pyridazin-2-yl)-4,4,4-trifluoro-3,3-dimethylbutyl)-1,2,5-oxadiazole-3-carboxamide] |  | < 50 nM |
